# Assay results published in patent US20100184653A1, “Derivates of Polyethylene Glycol Modified Thymosin Alpha 1” (Jiangsu Hansen Pharmaceutical Co., Ltd., priority 2008, published 2010).
# Residues, ends and D or L forms follow the SMILES beside them. No end group written: not given here.
# Legend:
# [1] = Pharmacokinetic test, half life after hypodermic injection; settings: in vivo, subcutaneous
# [2] = in body; cited from earlier work
# [3] = tested on: T-lymphocytes (mice's spleen cells); assay: ConA-induced IFN-γ production by mouse spleen T lymphocytes, ELISA of culture supernatant; type: cell-based, ICR mice; design: Mean (IFN-γ, ConA-induced cytokine production): unit not given here; settings: for Mean (IFN-γ, ConA-induced cytokine production): 24 hours
# Method: (§1) With Zadaxin as a positive control, the effect of the samples on T-lymphocytes producing cytokines were tested to confirm if the samples could adjust T-lymphocyte immune activity and the extent thereof.
# (§2) In the lymphocytes cultured in vitro, T cell can be activated by the stimulation of mitosis Concanavalin A and brings change of cells' behavior such as cytokine synthesis, cytokine receptor expression, cell differentiation and cell proliferation. The generation of cytokine and proliferation of the cell are response of the immune cell function and cell activation. Detection means is reliable, simple, and with good repeatability, therefore, evaluating the samples' effect to the function of T lymphocytes by detecting cytokine generation and cell proliferation has been widely applied.
# (§3) Preparation of spleen cell suspension: mice's spleen was obtained under aseptic condition, which was ground with frosted glass. The spleen cell suspension was thus obtained. After red blood lysis, the spleen cell suspension was washed three times, counted (live cells being more than 95%). The concentration of spleen cell was adjusted to 5×10^6 cells/ml with 10% FBS (bovine serum) RPMI1640 culture fluid.
# (§4) The concentration of mice's Spleen cells was adjusted to 5×10^6 cells/ml, and then distributed it into 24 wells plate with 1 ml/well; samples with various concentrations were added into the plate respectively with 0.5 ml/well; and then ConA (20 ug/ml) was added with 0.5 ml/well. The samples were kept at 37° C. in CO2 incubator for 24 hours, centrifuged and collected culture supernatant.
# (§5) Antibody Coating: The antibody was diluted with coating buffer and then was added into 96 well ELISA plates with 50 μL each wells. The plate was left overnight at […].
# (§6) Blocking: The antibody coating buffer was removed, and the plate was washed 3 times with washing solution (PBS/Tween solution). 100 μL of blocking buffer (PBS/10% FBS) was added to each wells of the plates. The plate was incubated at room temperature for 1 hour.
# (§7) Standards and samples: The blocking buffer was removed from the plates, which was washed 3 times with washing solution (PBS/Tween solution) and followed by adding standards and samples with 50 μL each wells. The plate was incubated at room temperature for 2 hours.
# (§8) Detection of Antibody and Enzyme: The standards and samples were removed from the plates. The plate was washed 3 times with washing solution (PBS/Tween solution). The diluted detective antibody and enzyme HRP were added into the plate with 50 μL each wells. The plate was incubated at room temperature for 1 hour.
# (§9) Substrate Staining: The diluted detection antibody and enzyme HRP were removed from the plate which was then washed 3 times with washing solution (PBS/Tween solution). The substrate resolved in citricic acid/hydrogen peroxide (TMB) was added into the plate with 50 μL each wells. The plate was incubated at room temperature away from the light for 30 minutes. After being stained, stop solution 2N H2SO4 was added into the plate with 25 μL per well.
# (§10) OD Detection: The plate was placed into enzyme-labeled instrument and read OD values at 450 nm (calibrated value of 570 nm).
# [4] = tested on: T-lymphocytes (mice's spleen cells); assay: ConA-induced IL-2 production by mouse spleen T lymphocytes, ELISA of culture supernatant; type: cell-based, ICR mice; design: unit not given here; settings: 24 hours
# Method: as §1, §2, §3, §4, §5, §6, §7, §8, §9, §10
Compound,half-life [1],T1/2 [2],activity of promoting the production of IFN-r by T cells ([3]; all experimental concentrations),promoting the production of IFN-r by T cells ([3]; compared with PEG-TA1),"Mean (IFN-γ, ConA-induced cytokine production) ([3]; sample 0.001 ug/ml)","Mean (IFN-γ, ConA-induced cytokine production) ([3]; sample 0.01 ug/ml)","Mean (IFN-γ, ConA-induced cytokine production) ([3]; sample 0.1 ug/ml)","Mean (IFN-γ, ConA-induced cytokine production) ([3]; sample 1 ug/ml)","Mean (IFN-γ, ConA-induced cytokine production) ([3]; sample 10 ug/ml)","Mean (IFN-γ, ConA-induced cytokine production) ([3]; sample 100 ug/ml)","Mean (IL-2, ConA-induced cytokine production) ([4]; sample 0.001 ug/ml)","Mean (IL-2, ConA-induced cytokine production) ([4]; sample 0.01 ug/ml)","Mean (IL-2, ConA-induced cytokine production) ([4]; sample 0.1 ug/ml)","Mean (IL-2, ConA-induced cytokine production) ([4]; sample 1 ug/ml)","Mean (IL-2, ConA-induced cytokine production) ([4]; sample 10 ug/ml)","Mean (IL-2, ConA-induced cytokine production) ([4]; sample 100 ug/ml)","stimulation of the production of IFN-r by T cells ([3]; compared with Zadaxin, several experimental concentration)"
"CC[C@H](C)[C@H](NC(=O)[C@H](CCC(=O)O)NC(=O)[C@H](CO)NC(=O)[C@H](CO)NC(=O)[C@@H](NC(=O)[C@H](CC(=O)O)NC(=O)[C@@H](NC(=O)[C@H](C)NC(=O)[C@H](C)NC(=O)[C@H](CC(=O)O)NC(=O)[C@H](CO)NC(C)=O)C(C)C)[C@@H](C)O)C(=O)N[C@H](C(=O)N[C@H](C(=O)N[C@@H](CCCCN)C(=O)N[C@@H](CC(=O)O)C(=O)N[C@@H](CC(C)C)C(=O)N[C@@H](CCCCN)C(=O)N[C@@H](CCC(=O)O)C(=O)N[C@@H](CCCCN)C(=O)N[C@@H](CCCCN)C(=O)N[C@@H](CCC(=O)O)C(=O)N[C@H](C(=O)N[C@H](C(=O)N[C@@H](CCC(=O)O)C(=O)N[C@@H](CCC(=O)O)C(=O)N[C@@H](C)C(=O)N[C@@H](CCC(=O)O)C(=O)N[C@@H](CC(N)=O)C(=O)O)C(C)C)C(C)C)[C@@H](C)O)[C@@H](C)O [Zadaxin, thymosin alpha 1] (Ac-SDAAVDTSSEITTKDLKEKKEVVEEAEN-OH)",~2 h,2 h,–,–,–,–,–,–,–,–,–,–,–,–,–,–,–
"Ac-Ser-Asp-Ala-Ala-Val-Asp-Thr-Ser-Ser-Glu-Ile-Thr-Thr-Lys-Asp-Leu-Lys-Glu-Lys-Lys-Glu-Val-Val-Glu-Glu-Ala-Glu-Asn-Gly-Gly-Cys-PEG40K (Ac-SDAAVDTSSEITTKDLKEKKEVVEEAENGG-{C(branched 40K mPEG-maleimide)}) [T-GG-C-mPEG, thymosin alpha 1 peptide derivative modified with PEG; PEG40K: branched-chain (mPEG)2-MAL]",–,–,showed activity,more effective than the thymosin alpha 1 modified with PEG at the N-terminal,4703,4891,4654,4990,5102,5577,3409,3610,3530,3397,3618,3692,–
"PEG-TA1: thymosin alpha 1 modified with PEG (derivative when n was 0); b135 calls it modified at the N-terminal (SDAAVDTSSEITTKDLKEKKEVVEEAEN; not fully specified (N-terminus); ends and bridges not checked; also: PEG attached, site unclear; UniProt P06454 2-29, looked up)",–,–,–,–,4809,4603,4141,4949,3874,5467,3505,3438,3339,3214,3348,3582,more effective
